Measured values from ChEMBL document CHEMBL5696439 (Cancer Res, 2010).
Activity calls are given as the source filed them. The rule behind the calls is not given here.

Columns and labels:
[1] = system: PC3MM2; test: Antitumor activity against human PC3MM2 cells xenografted in female nude mouse model assessed as reduction in P-AKT at T308 level at 50 mg/kg, iv administered once a week and measured at least 8 hrs by immunoblot analysis; assay type: functional, organism-based
[2] = system: 786-0; test: Antitumor activity against PTEN null-human 786-0 cells xenografted in female nude mouse model assessed as suppression in tumor growth at 25 mg/kg, po qd administered as 5 days on/2 days off regimen for 4 cycles relative to control; assay type: functional; details: time 28 day
[3] = target: mTORC2 (Homo sapiens) (UniProt P42345+Q6R327+Q9BVC4+Q9BPZ7); details: U-87 MG, dose 0.025-2 µmol/L, time 6.0 hrs
[4] = target: Dual specificity tyrosine-phosphorylation-regulated kinase 3 (Homo sapiens) (UniProt O43781); test: Inhibition of recombinant human full-length GST-tagged DYRK3 expressed in insect cells at 2 uM using Ser/Thr 09 as substrate measured after 1 hr by Z'-LYTE assay relative to control; details: Insect cell
[5] = target: Fibroblast growth factor receptor 4 (Homo sapiens) (UniProt P22455); test: Inhibition of recombinant human His-tagged FGFR4 ([…] residues) expressed in insect cells at 2 uM using Tyr 04 as substrate measured after 1 hr by Z'-LYTE assay relative to control; details: Insect cell
[6] = system: Rat1; test: Inhibition of mTORC2 in rat Rat1 cells assessed as AKT phosphorylation at S473 level preincubated for 1 hrs in the presence of IGF-1 stimulation by immunoblot assay; assay type: cell-based; details: dose 0.01-2 µmol/L
[7] = target: Serine/threonine-protein kinase mTOR (Homo sapiens, UniProt P42345); test: Inhibition of human full-length Flag-tagged mTOR expressed in HEK293 cells using His6-S6K as substrate measured after 2 hrs in presence of ATP by DELFIA
[8] = target: Proto-oncogene tyrosine-protein kinase receptor Ret (Homo sapiens) (UniProt P07949); test: Inhibition of recombinant human GST-tagged RET (658-1114 residues) expressed in insect cells at 2 uM using Tyr 02 as substrate measured after 1 hr by Z'-LYTE assay relative to control; details: Insect cell
[9] = system: MDA-MB-361; test: Inhibition of protein synthesis in human MDA-MB-361 cells at 3 micromol/L incubated for 3 hrs by [3H] methionine incorporation based scintillation counter analysis relative to control; assay type: functional; details: MDA-MB-361, 3 h, dose 3 µmol/L
[10] = target: Ribosomal protein S6 kinase alpha-2 (Homo sapiens) (UniProt Q15349); test: Inhibition of recombinant human full length GST-tagged RPS6KA2 expressed in insect cells at 2 uM using Ser/Thr 06 as substrate measured after 1 hr by Z'-LYTE assay relative to control; details: Insect cell
[11] = system: Platelet-derived growth factor receptor alpha (Homo sapiens), P16234 [T674I]; test: Inhibition of recombinant human GST-tagged PDGFRA T674I mutant (550-1089 residues) expressed in baculovirus expression system at 2 uM using Tyr 04 as substrate measured after 1 hr by Z'-LYTE assay relative to control
[12] = target: Cytoplasmic tyrosine-protein kinase BMX (Homo sapiens) (UniProt P51813); test: Inhibition of recombinant human full-length His-tagged BMX expressed in insect cells at 2 uM using Tyr 01 as substrate measured after 1 hr by Z'-LYTE assay relative to control; details: Insect cell
[13] = target: Dual specificity tyrosine-phosphorylation-regulated kinase 1B (Homo sapiens) (UniProt Q9Y463); test: Inhibition of recombinant human full-length GST-tagged DYRK1B expressed in insect cells at 2 uM using Ser/Thr 18 as substrate measured after 1 hr by Z'-LYTE assay relative to control; details: Insect cell
[14] = target: Tyrosine-protein kinase Blk (Homo sapiens) (UniProt P51451); test: Inhibition of recombinant human full-length His-tagged BLK expressed in insect cells at 2 uM using Tyr 01 as substrate measured after 1 hr by Z'-LYTE assay relative to control; details: Insect cell
[15] = target: Casein kinase I isoform gamma-3 (Homo sapiens) (UniProt Q9Y6M4); test: Inhibition of recombinant human full-length GST-tagged CSNK1G3 expressed in insect cells at 2 uM using Ser/Thr 05 as substrate measured after 1 hr by Z'-LYTE assay relative to control; details: Insect cell
[16] = target: RAC-alpha serine/threonine-protein kinase (Homo sapiens) (UniProt P31749); test: Inhibition of recombinant human full-length His-tagged AKT1 expressed in insect cells at 2 uM using Ser/Thr 06 as substrate measured after 1 hr by Z'-LYTE assay relative to control; details: Insect cell
[17] = system: A498; test: Synergistic antitumor activity against human A498 cells xenografted in female nude mouse model assessed as cause in tumor regression at 50 mg/kg, po qd administered as 5 days on/2 days off regimen for 4 cycles in the presence of BEV; assay type: functional, organism-based; details: time 28.0 day
[18] = target: Protein-tyrosine kinase 2-beta (Homo sapiens) (UniProt Q14289); test: Inhibition of recombinant human full length GST-tagged PTK2B expressed in insect cells at 2 uM using Tyr 01 as substrate measured after 1 hr by Z'-LYTE assay relative to control; details: Insect cell
[19] = target: Ephrin type-A receptor 8 (Homo sapiens) (UniProt P29322); test: Inhibition of recombinant human GST-tagged EPHA8 (565-1005 residues) expressed in insect cells at 2 uM using Tyr 02 as substrate measured after 1 hr by Z'-LYTE assay relative to control; details: Insect cell
[20] = system: U-87 MG; test: Antiproliferative activity against human U-87MG cells assessed as cell growth inhibition at 10 micromol/L incubated for 3 days by MTS assay relative to control; assay type: functional, U-87MG ATCC; details: 72 h, dose 10 µmol/L, time 3 day
[21] = target: Serine/threonine-protein kinase BRSK1 (Homo sapiens) (UniProt Q8TDC3); test: Inhibition of recombinant human full-length GST tagged BRSK1 expressed in baculovirus expression system at 2 uM using Ser/Thr 21 as substrate measured after 1 hr by Z'-LYTE assay relative to control
[22] = system: A498; test: Antiproliferative activity against human A498 cells assessed as cell growth inhibition at 10 micromol/L incubated for 3 days by MTS assay relative to control; assay type: functional; details: A498, 72 h, dose 10 µmol/L, time 3 day
[23] = system: PC3MM2; test: Induction of apoptosis in human PC3MM2 cells assessed as increase in G1 phase at 1 micromol/L incubated for 24 hrs by FACS analysis; assay type: functional, cell-based; details: dose 1.0 µmol/L
[24] = target: Serine/threonine-protein kinase PAK 4 (Homo sapiens) (UniProt O96013); test: Inhibition of recombinant human GST-tagged PAK4 (295-591 residues) expressed in insect cells at 2 uM using Ser/Thr 20 as substrate measured after 1 hr by Z'-LYTE assay relative to control; details: Insect cell
[25] = target: Mitogen-activated protein kinase 8 (Homo sapiens) (UniProt P45983); test: Inhibition of recombinant human full length His-tagged MAPK8 expressed in insect cells at 2 uM using Ser/Thr 04 as substrate measured after 1 hr by Z'-LYTE assay relative to control; details: Insect cell
Sequence of Mitogen-activated protein kinase 8 (Homo sapiens) (P45983 whole entry): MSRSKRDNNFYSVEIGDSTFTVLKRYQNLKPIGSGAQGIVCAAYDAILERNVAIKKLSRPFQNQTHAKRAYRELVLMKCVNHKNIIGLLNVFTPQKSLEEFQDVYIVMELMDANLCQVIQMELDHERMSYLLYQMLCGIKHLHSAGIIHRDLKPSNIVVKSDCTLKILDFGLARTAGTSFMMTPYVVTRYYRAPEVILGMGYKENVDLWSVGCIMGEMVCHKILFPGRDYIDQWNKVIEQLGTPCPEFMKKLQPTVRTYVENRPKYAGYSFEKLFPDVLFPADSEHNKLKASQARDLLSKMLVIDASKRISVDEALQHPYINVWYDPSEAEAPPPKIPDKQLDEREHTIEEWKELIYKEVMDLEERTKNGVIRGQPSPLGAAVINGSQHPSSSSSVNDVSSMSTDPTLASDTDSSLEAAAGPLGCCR

Sequence of Dual specificity tyrosine-phosphorylation-regulated kinase 3 (Homo sapiens) (O43781 whole entry): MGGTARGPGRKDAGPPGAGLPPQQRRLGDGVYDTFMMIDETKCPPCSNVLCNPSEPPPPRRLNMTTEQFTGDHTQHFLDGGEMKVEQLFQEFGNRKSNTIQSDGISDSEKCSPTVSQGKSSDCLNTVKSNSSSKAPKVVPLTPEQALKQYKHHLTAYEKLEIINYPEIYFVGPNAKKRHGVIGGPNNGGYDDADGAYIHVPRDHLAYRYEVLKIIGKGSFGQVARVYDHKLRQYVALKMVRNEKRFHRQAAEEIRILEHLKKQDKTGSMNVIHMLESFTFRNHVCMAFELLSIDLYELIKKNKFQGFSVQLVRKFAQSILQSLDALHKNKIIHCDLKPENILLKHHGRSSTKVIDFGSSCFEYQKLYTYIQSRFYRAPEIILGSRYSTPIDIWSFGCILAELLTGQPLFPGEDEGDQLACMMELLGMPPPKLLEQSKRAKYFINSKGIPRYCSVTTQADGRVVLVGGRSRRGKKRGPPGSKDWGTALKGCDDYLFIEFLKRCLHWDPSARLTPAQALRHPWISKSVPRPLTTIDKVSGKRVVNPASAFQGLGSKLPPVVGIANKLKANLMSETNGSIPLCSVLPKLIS
Sequence of Fibroblast growth factor receptor 4 (Homo sapiens) (P22455 22-802 limits assumed): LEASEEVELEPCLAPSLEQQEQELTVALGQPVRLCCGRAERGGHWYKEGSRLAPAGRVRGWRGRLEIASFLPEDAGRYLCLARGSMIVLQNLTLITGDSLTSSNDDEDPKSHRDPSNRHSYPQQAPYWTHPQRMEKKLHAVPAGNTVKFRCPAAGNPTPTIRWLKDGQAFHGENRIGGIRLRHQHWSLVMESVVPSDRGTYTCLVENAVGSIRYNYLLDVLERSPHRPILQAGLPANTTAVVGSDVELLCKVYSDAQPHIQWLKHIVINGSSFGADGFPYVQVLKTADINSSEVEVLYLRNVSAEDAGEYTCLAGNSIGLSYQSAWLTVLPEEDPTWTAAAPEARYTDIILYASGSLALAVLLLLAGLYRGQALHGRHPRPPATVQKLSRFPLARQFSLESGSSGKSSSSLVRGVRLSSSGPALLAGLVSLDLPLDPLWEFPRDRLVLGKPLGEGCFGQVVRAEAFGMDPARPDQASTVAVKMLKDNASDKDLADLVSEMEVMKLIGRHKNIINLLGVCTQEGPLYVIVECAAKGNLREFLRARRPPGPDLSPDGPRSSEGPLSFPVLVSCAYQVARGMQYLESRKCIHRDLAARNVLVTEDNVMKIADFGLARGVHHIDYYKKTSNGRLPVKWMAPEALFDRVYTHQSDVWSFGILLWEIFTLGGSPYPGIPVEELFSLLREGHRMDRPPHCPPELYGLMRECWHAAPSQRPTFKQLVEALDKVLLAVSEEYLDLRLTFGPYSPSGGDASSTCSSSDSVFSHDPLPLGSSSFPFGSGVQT
Sequence of Tyrosine-protein kinase Blk (Homo sapiens) (P51451 2-505 limits assumed): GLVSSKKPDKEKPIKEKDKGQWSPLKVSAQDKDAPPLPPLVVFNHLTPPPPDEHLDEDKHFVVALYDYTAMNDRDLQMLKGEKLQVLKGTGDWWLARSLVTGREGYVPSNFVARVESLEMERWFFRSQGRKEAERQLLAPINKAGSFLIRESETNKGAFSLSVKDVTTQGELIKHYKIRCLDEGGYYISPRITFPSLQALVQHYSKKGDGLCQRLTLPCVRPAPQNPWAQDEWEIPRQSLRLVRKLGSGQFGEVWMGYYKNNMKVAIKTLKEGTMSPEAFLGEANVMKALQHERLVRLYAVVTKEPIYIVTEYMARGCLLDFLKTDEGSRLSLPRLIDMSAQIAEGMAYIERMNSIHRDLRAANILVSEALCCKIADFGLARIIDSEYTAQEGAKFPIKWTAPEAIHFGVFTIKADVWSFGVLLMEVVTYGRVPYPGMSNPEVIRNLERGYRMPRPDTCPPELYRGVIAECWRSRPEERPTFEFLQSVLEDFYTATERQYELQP
Sequence of Protein-tyrosine kinase 2-beta (Homo sapiens) (Q14289 whole entry, looked up, the tested form may be a part): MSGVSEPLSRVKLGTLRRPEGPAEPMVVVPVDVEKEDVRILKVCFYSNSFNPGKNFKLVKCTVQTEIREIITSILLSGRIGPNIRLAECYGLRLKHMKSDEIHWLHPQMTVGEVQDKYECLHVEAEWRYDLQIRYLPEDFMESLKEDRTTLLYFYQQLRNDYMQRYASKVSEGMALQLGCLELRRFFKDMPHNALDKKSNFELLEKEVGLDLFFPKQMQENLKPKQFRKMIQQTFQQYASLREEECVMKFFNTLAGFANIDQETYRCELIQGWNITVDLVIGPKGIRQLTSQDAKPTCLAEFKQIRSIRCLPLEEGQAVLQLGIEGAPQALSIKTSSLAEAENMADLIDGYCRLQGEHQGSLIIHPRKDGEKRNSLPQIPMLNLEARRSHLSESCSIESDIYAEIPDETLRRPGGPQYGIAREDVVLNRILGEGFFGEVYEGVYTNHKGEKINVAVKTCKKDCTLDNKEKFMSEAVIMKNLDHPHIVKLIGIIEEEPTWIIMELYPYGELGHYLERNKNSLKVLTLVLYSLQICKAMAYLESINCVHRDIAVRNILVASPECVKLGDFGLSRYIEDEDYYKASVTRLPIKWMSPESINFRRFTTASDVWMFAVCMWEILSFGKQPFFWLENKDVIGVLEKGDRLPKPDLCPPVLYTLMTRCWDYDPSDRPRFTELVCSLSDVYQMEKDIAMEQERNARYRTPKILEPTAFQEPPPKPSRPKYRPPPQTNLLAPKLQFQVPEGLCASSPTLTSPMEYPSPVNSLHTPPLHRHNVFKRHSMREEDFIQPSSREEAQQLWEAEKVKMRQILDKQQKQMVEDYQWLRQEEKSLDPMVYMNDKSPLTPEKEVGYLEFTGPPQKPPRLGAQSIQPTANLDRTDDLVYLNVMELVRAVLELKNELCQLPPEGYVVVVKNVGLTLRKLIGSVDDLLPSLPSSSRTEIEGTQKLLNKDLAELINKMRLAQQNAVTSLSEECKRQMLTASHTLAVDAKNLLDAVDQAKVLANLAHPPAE
Sequence of Casein kinase I isoform gamma-3 (Homo sapiens) (Q9Y6M4 whole entry, looked up, canonical isoform): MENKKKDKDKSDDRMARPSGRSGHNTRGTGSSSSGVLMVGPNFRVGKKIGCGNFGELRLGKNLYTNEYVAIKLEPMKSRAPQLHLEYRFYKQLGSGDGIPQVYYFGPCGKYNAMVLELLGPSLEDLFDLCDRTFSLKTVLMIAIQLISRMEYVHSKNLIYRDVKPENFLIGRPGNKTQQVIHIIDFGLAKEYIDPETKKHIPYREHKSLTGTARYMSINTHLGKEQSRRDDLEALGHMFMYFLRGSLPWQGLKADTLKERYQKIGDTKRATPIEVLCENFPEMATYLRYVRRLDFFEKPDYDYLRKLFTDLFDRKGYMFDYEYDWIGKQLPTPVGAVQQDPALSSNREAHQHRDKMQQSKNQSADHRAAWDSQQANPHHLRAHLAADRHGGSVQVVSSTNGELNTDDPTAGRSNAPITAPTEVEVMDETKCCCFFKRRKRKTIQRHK
Sequence of Serine/threonine-protein kinase PAK 4 (Homo sapiens) (O96013 whole entry, looked up, the tested form may be a part): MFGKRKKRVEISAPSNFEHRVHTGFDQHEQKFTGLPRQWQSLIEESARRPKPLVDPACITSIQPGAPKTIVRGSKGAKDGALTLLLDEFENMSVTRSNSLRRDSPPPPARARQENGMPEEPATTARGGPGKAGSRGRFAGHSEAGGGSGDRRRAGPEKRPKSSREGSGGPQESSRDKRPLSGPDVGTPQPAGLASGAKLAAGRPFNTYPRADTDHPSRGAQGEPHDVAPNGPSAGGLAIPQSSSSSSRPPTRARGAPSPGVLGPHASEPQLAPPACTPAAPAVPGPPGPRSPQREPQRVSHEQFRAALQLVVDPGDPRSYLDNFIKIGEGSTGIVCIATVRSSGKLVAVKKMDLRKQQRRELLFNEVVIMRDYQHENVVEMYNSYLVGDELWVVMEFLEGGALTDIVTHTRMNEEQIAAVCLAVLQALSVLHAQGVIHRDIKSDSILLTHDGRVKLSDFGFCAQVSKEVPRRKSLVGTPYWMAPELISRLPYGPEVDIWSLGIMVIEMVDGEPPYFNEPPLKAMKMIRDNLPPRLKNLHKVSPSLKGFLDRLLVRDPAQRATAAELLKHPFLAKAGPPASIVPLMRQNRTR
Sequence of Dual specificity tyrosine-phosphorylation-regulated kinase 1B (Homo sapiens) (Q9Y463 whole entry, looked up): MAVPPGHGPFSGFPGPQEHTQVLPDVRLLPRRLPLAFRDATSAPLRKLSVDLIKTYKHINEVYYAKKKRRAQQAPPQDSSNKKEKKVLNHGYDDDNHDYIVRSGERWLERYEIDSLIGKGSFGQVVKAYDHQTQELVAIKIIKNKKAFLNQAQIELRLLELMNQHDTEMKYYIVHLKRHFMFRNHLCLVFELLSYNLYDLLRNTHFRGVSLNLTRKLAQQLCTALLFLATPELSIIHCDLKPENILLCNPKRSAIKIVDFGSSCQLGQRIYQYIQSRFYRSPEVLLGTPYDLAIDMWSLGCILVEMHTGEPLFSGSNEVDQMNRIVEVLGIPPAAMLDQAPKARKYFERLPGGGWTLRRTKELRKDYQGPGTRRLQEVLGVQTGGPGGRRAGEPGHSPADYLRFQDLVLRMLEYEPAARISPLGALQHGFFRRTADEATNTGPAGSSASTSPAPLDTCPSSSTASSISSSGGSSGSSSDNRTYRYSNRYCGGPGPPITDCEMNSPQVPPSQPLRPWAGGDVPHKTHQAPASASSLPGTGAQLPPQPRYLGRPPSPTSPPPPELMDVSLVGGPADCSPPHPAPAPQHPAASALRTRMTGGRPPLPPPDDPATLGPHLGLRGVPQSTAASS

**Q.** How did the Activity [1] turn out when `CNC(=O)Nc1ccc(-c2nc(N3CC4CCC(C3)O4)c3cnn(C4CCC5(CC4)OCCO5)c3n2)cc1` was run?
**A.** Its Activity is “inactive”.

**Q.** What about the Activity [2] of the same molecule?
**A.** Its Activity is 100%.

**Q.** What about the inhibition [3] of the same molecule?
**A.** The inhibition was “inactive”.

**Q.** And the inhibition [4]?
**A.** Its inhibition is -1%.

**Q.** And the inhibition [5]?
**A.** The inhibition was 4%.

**Q.** And the inhibition [6]?
**A.** The inhibition was “Active”.

**Q.** What about the IC50 [7] of the same molecule?
**A.** Its IC50 is 0.19 nM.

**Q.** What about the inhibition [8] of the same molecule?
**A.** Its inhibition is 4%.

**Q.** What about the inhibition at 3 µM [9] of the same molecule?
**A.** The inhibition at 3 µM was ~50%.

**Q.** And the inhibition [10]?
**A.** Its inhibition is -1%.

**Q.** And the inhibition [11]?
**A.** Its inhibition is 12%.

**Q.** What about the inhibition [12] of the same molecule?
**A.** The inhibition was 10%.

**Q.** What about the inhibition [13] of the same molecule?
**A.** Its inhibition is 2%.

**Q.** And the inhibition [14]?
**A.** Its inhibition is 1%.

**Q.** And the inhibition [15]?
**A.** The inhibition was -1%.

**Q.** And the inhibition [16]?
**A.** The inhibition was -5%.

**Q.** And the Activity [17]?
**A.** Its Activity is “Active”.

**Q.** And the inhibition [18]?
**A.** Its inhibition is -3%.

**Q.** What about the inhibition [19] of the same molecule?
**A.** Its inhibition is 24%.

**Q.** What about the inhibition at 10 µM [20] of the same molecule?
**A.** Its inhibition at 10 µM is 100%.

**Q.** And the inhibition [21]?
**A.** The inhibition was 1%.

**Q.** And the inhibition at 10 µM [22]?
**A.** Its inhibition at 10 µM is 100%.

**Q.** What about the Activity [23] of the same molecule?
**A.** The Activity was “Active”.

**Q.** And the inhibition [24]?
**A.** The inhibition was 13%.

**Q.** And the inhibition [25]?
**A.** Its inhibition is 12%.
